{"source": "patent US4487932A", "about": "“2,6-Dimethyl-3,5-bis-(1-adamantylhydr oxycarbonyl)-4-(2-difluoromethoxyphenyl)-1,4-dihydropyridine” (Institut Organicheskogo Sinteza Akademii Nauk Latviiskoi, priority 1983, dated 1984)", "key": {"[1]": {"tested_on": "myocardial ischemia (partial occlusion of the coronary artery)", "test": "rise of ST segment (epicardiac ECG) in partial occlusion of the coronary artery with superposition of a high artificial rhythm", "assay_type": "in vivo, cats and dogs"}, "[2]": {"tested_on": "systolic arterial pressure", "conditions": "for lowering of the systolic arterial pressure: 1 hour after peroral administration; for lowering of the systolic arterial pressure / lowering of the arterial pressure: present compound 10 mg/kg; for lowering of the arterial pressure: in 5 hours after peroral administration"}, "white mice": {"tested_on": "white mice", "test": "in vivo", "from_the_text": "(§1) The studies of acute toxicity established the present compound to be low-toxic.\n(§2) Acute toxicity of investigated compounds for\n(§3) white mice upon intraperitoneal administration"}, "[3]": {"tested_on": "coronary circulation / cardiovascular system", "conditions": "for Duration: increase of coronary blood flow", "from_the_text": "The action of 2,6-dimethyl-3,5-bis-(1-adamantylhydroxycarbonyl)-4-(2-difluoromethoxyphenyl)-1,4-dihydropyridine on the cardiovascular system was investigated in experiments with cats, rats, and mice."}, "[4]": {"tested_on": "venous blood outflowing from the coronary sinus of the heart", "test": "content of oxygen in venous blood outflowing from the coronary sinus; minute volume of the heart", "assay_type": "in vivo, cats", "conditions": "0.2 to 3 mg/kg"}, "[5]": {"tested_on": "myocardial ischemia (complete occlusion of the coronary artery)", "test": "ischemic change in the heart in complete occlusion of the coronary artery", "assay_type": "in vivo, dogs"}, "arterial pressure": {"tested_on": "arterial pressure", "test": "arterial pressure in rats of the line SHR, daily peroral administration during 10 days", "assay_type": "in vivo", "method": "The application of the present compound with daily peroral administration to rats of the line SHR in the dose of 20 mg/kg during 10 days causes lowering of the arterial pressure by 30-60 mm Hg during 24 hours. […] After the administration of the present compound was discontinued, the systolic arterial pressure gradually rose and reached the control group value in 3 days."}, "[6]": {"tested_on": "arrhythmia and cardiac arrest caused by calcium chloride", "test": "calcium chloride model of arrhythmia in white mice", "assay_type": "in vivo"}, "aconitic arrhythmia": {"tested_on": "aconitic arrhythmia", "test": "aconitic model of arrhythmia in albino rats", "assay_type": "in vivo", "conditions": "peroral and intravenous administration"}, "[7]": {"tested_on": "arrhythmia caused by barium chloride", "test": "barium chloride arrhythmia in rabbits", "assay_type": "in vivo"}, "in vivo": {"test": "in vivo", "conditions": "mouse, in vivo, ip", "from_the_text": "as §1, §2, §3"}, "solubility": {"test": "solubility", "assay_type": "physicochemical", "conditions": "ethyl alcohol, chloroform, and other organic solvents and oils"}, "stability in storage": {"test": "stability in storage", "assay_type": "physicochemical", "conditions": "conventional conditions"}, "[8]": {"conditions": "white mice, intraperitoneal, present compound = 1"}, "[9]": {"conditions": "narcotized cats, dose 0.05 mg/kg"}, "[10]": {"conditions": "narcotized cats, dose 0.50 mg/kg"}, "[11]": {"conditions": "narcotized cats, dose 2.00 mg/kg"}, "[12]": {"conditions": "preliminary peroral, 2 to 10 mg/kg, barium chloride 4 mg/kg intravenously"}}, "note": "“Also recorded” adds a separate entry of the source. Where two headings read alike, the source gives them in different places.", "data": [{"smiles": "COC(=O)C1=C(C)NC(C)=C(C(=O)OC)C1c1ccccc1[N+](=O)[O-]", "note": "[Niphedipine, 2,6-dimethyl-4-o-nitrophenyl-3,5-dimethoxycarbonyl-1,4-dihydropyridine, reference compound]", "values": [{"measurement": "prevention of the rise of the ST segment", "setting": "[1]; intravenous, 0.01 to 0.05 mg/kg, partial occlusion + high artificial rhythm", "value": "only in an insignificant prevention of the rise of the ST segment"}, {"measurement": "lowering of the systolic arterial pressure", "setting": "[2]", "value": 51.7, "unit": "mm Hg"}, {"measurement": "lowering of the arterial pressure", "setting": "[2]", "value": 14, "unit": "mm Hg"}]}, {"smiles": "CCN(CC)CCNC(=O)c1ccc(N)cc1", "note": "[Novocainamide (procainamide), reference compound]", "values": [{"measurement": "Relative toxicity", "setting": "white mice; mouse, in vivo, ip", "value": 28.9}]}, {"smiles": "COc1ccc(Cc2nccc3cc(OC)c(OC)cc23)cc1OC", "note": "[Papaverine, reference compound]", "values": [{"measurement": "Relative toxicity", "setting": "white mice; [8]", "value": 92.3}]}, {"smiles": "CC1=C(C(=O)OC23CC4CC(CC(C4)C2)C3)C(c2ccccc2OC(F)F)C(C(=O)OC23CC4CC(CC(C4)C2)C3)=C(C)N1", "note": "(stereo not shown) [Present compound, 2,6-dimethyl-3,5-bis-(1-adamantylhydroxycarbonyl)-4-(2-difluoromethoxyphenyl)-1,4-dihydropyridine]", "values": [{"measurement": "effect on arterial pressure, systemic venous pressure and aortal blood flow", "setting": "[3]; 0.005 to 3 mg/kg", "value": "does not cause sharp drop of the arterial pressure, noticeable increase of the systemic venous pressure, or diminution of the aortal blood flow"}, {"measurement": "undesirable effects (sharp drop of arterial pressure, diminishing of arterial/aortal blood flow, increase of systemic venous pressure)", "setting": "[3]; 0.05 to 3 mg/kg", "value": "causing no undesirable effects; also recorded: without causing such undesirable effects as sharp drop of the arterial pressure or pronounced diminishing of the aortal blood flow"}, {"measurement": "duration of action compared with niphedipine", "setting": "[3]; equiactive doses", "value": "twice as durative"}, {"measurement": "rising of the systemic venous pressure", "setting": "[3]; large doses, intravenous administration", "value": "does not bring about rising of the systemic venous pressure"}, {"measurement": "coronarodilating action", "setting": "[3]; narcotized cats", "value": "pronounced coronarodilating action"}, {"measurement": "coronarodilating activity compared with niphedipine", "setting": "[3]; narcotized cats", "value": "somewhat inferior to niphedipine in activity"}, {"measurement": "Change of aortal blood flow", "setting": "[3]; [9]", "value": "+5%"}, {"measurement": "Increase of space velocity of coronary blood flow", "setting": "[3]; [9]", "value": 10, "unit": "%"}, {"measurement": "Lowering of arterial pressure", "setting": "[3]; [9]", "value": 0, "unit": "%"}, {"measurement": "Duration", "setting": "[3]; [9]", "value": 25, "unit": "min"}, {"measurement": "Change of aortal blood flow", "setting": "[3]; [10]", "value": "+12%"}, {"measurement": "Change of systemic venous pressure", "setting": "[3]; [10]", "value": -10, "unit": "%"}, {"measurement": "Increase of space velocity of coronary blood flow", "setting": "[3]; [10]", "value": 60, "unit": "%"}, {"measurement": "Lowering of arterial pressure", "setting": "[3]; [10]", "value": 5, "unit": "%"}, {"measurement": "Duration", "setting": "[3]; [10]", "value": 50, "unit": "min"}, {"measurement": "Change of aortal blood flow", "setting": "[3]; [11]", "value": "+20%"}, {"measurement": "Change of systemic venous pressure", "setting": "[3]; [11]", "value": "+8%"}, {"measurement": "Increase of space velocity of coronary blood flow", "setting": "[3]; [11]", "value": 120, "unit": "%"}, {"measurement": "Lowering of arterial pressure", "setting": "[3]; [11]", "value": 20, "unit": "%"}, {"measurement": "Duration", "setting": "[3]; [11]", "value": 90, "unit": "min"}, {"measurement": "minute volume of the heart", "setting": "[4]", "value": "somewhat increases"}, {"measurement": "content of oxygen in venous blood outflowing from the coronary sinus", "setting": "[4]; cats", "value": "increases the content of oxygen in venous blood; also recorded: increases the content of oxygen in the venous blood"}, {"measurement": "effectiveness by ECG data (epicardium lead) compared with niphedipine and nitroglycerine", "setting": "[1]; experiments with cats and dogs", "value": "more effective than niphedipine and nitroglycerine"}, {"measurement": "effect compared with nitroglycerine", "setting": "[1]; intravenous 0.3 to 2 mg/kg vs nitroglycerine 0.05 mg/kg", "value": "almost two times more durative and more pronounced than of nitroglycerine"}, {"measurement": "rise of the ST segment on epicardiac leads of the ECG", "setting": "[1]; preliminary intravenous, 0.3 to 2 mg/kg, partial occlusion + high artificial rhythm", "value": "considerably diminishes, and in some cases even completely precludes a rise of the ST segment"}, {"measurement": "myocardial ischemia", "setting": "[5]; complete occlusion and also partial occlusion with high artificial rhythm, cats and dogs", "value": "diminishes myocardial ischemia"}, {"measurement": "ischemic change in the heart", "setting": "[5]; dogs, preliminary administration, 0.5 to 2 mg/kg, complete occlusion", "value": "considerably diminished the ischemic change in the heart"}, {"measurement": "time for systolic arterial pressure to reach the control group value after discontinuation", "setting": "arterial pressure; after daily peroral 20 mg/kg during 10 days", "value": 3, "unit": "days"}, {"measurement": "pulse frequency", "setting": "arterial pressure; daily peroral 20 mg/kg during 10 days", "value": "No increase of the pulse frequency was observed"}, {"measurement": "lowering of the arterial pressure", "setting": "arterial pressure; daily peroral 20 mg/kg during 10 days, during 24 hours", "value": "30-60 mm Hg"}, {"measurement": "antiarrhythmic activity compared with novocainamide (procainamide) and quinidine", "setting": "[6]; calcium model of arrhythmia", "value": "in smaller doses, and in a more pronounced manner; also recorded: exceeds that of novocainamide (procainamide) and quinidine"}, {"measurement": "prevention of arrhythmia and cardiac arrest", "setting": "[6]; peroral, 1 to 5 mg/kg, calcium chloride intravenous", "value": "prevents the appearance of arrhythmia and cardiac arrest"}, {"measurement": "prophylactic and therapeutic activity on aconitic arrhythmia", "setting": "aconitic arrhythmia", "value": "considerable prophylactic and therapeutic activity; also recorded: prophylactic and therapeutic effect"}, {"measurement": "prophylactic and therapeutic effect on barium arrhythmia", "setting": "[7]", "value": "prophylactic and therapeutic effect"}, {"measurement": "alleviation of arrhythmia", "setting": "[7]; [12]", "value": "considerably alleviates arrhythmia"}, {"measurement": "shortening of arrhythmia", "setting": "[7]; [12]", "value": "2-5 times"}, {"measurement": "LD50", "setting": "in vivo", "value": 8400, "unit": "mg/kg"}, {"measurement": "Relative toxicity", "setting": "white mice; mouse, in vivo, ip", "value": 1}, {"measurement": "LD50", "setting": "white mice; white mice, intraperitoneal", "value": "8400(6885.2-10248) mg/kg"}, {"measurement": "toxicity relative to niphedipine", "setting": "white mice; white mice, intraperitoneal", "value": "1/44"}, {"measurement": "toxicity relative to quinidine", "setting": "white mice; white mice, intraperitoneal", "value": "1/53"}, {"measurement": "solubility", "setting": "solubility", "value": "readily soluble in ethyl alcohol, chloroform, and other organic solvents and oils"}, {"measurement": "stability in storage", "setting": "stability in storage", "value": "stable when stored under conventional conditions"}, {"measurement": "lowering of the systolic arterial pressure", "setting": "[2]", "value": 31.5, "unit": "mm Hg"}, {"measurement": "lowering of the arterial pressure", "setting": "[2]", "value": 8.6, "unit": "mm Hg"}, {"measurement": "lowering of arterial pressure compared with niphedipine", "setting": "[2]; peroral 10 mg/kg", "value": "less pronounced than the action of niphedipine"}]}, {"smiles": "C=C[C@H]1C[N@@]2CC[C@H]1C[C@@H]2[C@@H](O)c1ccnc2ccc(OC)cc12", "note": "[Quinidine, reference compound]", "values": [{"measurement": "Relative toxicity", "setting": "white mice; [8]", "value": 53.8}]}]}
